Test results as given in patent US9113629B2, “4-amino-6-(4-substituted-phenyl)-picolinates and 6-amino-2-(4-substituted-phenyl)-pyrimidine-4-carboxylates and their use as herbicides” (DOW AGROSCIENCES LLC, priority 2013, dated 2015).
Like-named read-outs stand apart in the source and are kept apart here.

Tests used:
[1] = test system: LAMSS; assay: Post-emergent Test III, herbicidal activity in wheat and barley; format: in vivo; settings: for pest or weed control at 35 g/ha: 35 g ai/ha; for pest or weed control at 70 g/ha: 70 g ai/ha; for GR50 LAMSS / GR80 LAMSS: probit analysis, 21 days after application; for GR50 LAMSS: dose for growth reduction of 50 percent; for GR80 LAMSS: dose for growth reduction of 80 percent
Procedure, shortened: (§1)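 Plants at the second to third true-leaf stage, grown in a greenhouse at about 18/17 °C with a 14 h photoperiod, were sprayed post-emergence at 187 L/ha with the high rate and ½× to 1/16× serial dilutions in an acetone/DMSO/crop-oil/surfactant carrier. Injury was rated visually at 21 d on a 0–100% scale, and GR20–GR90 were derived by probit analysis.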

[2] = test system: VERPE: bird's-eye speedwell (veronica persica); assay: as above; format: in vivo; settings: for pest or weed control at 35 g/ha: 35 g ai/ha; for pest or weed control at 70 g/ha: 70 g ai/ha; for GR50 VERPE / GR80 VERPE: probit analysis
Procedure, shortened: as §1

[3] = test system: TRZSS; assay: Pre-emergent Test III, preemergent activity in wheat and barley; format: in vivo, Triticum aestivum
Experimental: (§2) Pre-emergent Test III. Seeds of test species were planted into square plastic pots (10 cm wide) containing sandy loam soil. After planting, all pots were sub-irrigated 16 h prior to compound application. A weighed amount, determined by the highest rate to be tested, of each test compound was placed in a 25 mL glass vial and was dissolved in 4 mL of a 97:3 v/v mixture of acetone and DMSO to obtain concentrated stock solutions. […] The concentrated stock solutions obtained were diluted with 20 mL of an aqueous mixture containing water and 0.02% w/v (weight/volume) of Triton X-155 to obtain spray solutions containing the highest application rates. Additional application rates were obtained by serial dilution of 12 mL of the high rate solution into a solution containing 2 mL of 97:3 v/v mixture of acetone and DMSO and 10 mL of an aqueous mixture containing water and 0.02% w/v (weight/volume) of Triton X-155 to obtain 1⁄2×, 1⁄4×, 1⁄8× and 1/16× rates of the high rate. Compound requirements are based upon a 12 mL application volume at a rate of 187 liters per hectare (L/ha). Formulated compounds were applied to the soil surface with an overhead Mandel track sprayer equipped with […] nozzles calibrated to deliver 187 L/ha over an application area of 0.503 square meters. Control pots were sprayed in the same manner with the solvent blank. The treated pots and control pots were placed in a greenhouse as described above and watered through surface irrigation. After 21 d, the condition of the test pots as compared with that of the untreated pots was determined visually and scored on a scale of 0 to 100 percent where 0 corresponds to no herbicidal effect and 100 corresponds to plant death or lack of emergence from the soil. By applying the well-accepted probit analysis as described by J. Berkson in Journal of the American Statistical Society, 48, 565 (1953) and by D. Finney in “Probit Analysis” Cambridge University Press (1952), the above data can be used to calculate GR20, GR50, GR80 and GR90 values, which are defined as growth reduction factors that correspond to the effective dose of herbicide required to kill or control 20 percent, 50 percent, 80 percent or 90 percent, respectively, of a target plant.

[4] = test system: SETVI; assay: as above; format: in vivo, Setaria viridis
Experimental: as §2

[5] = test system: HORSS; assay: as above; format: in vivo, Hordeum vulgare
Experimental: as §2

[6] = test system: LAMSS; assay: as above; format: in vivo
Experimental: as §2

[7] = post-emergence, 504 h, read-out: Visual Growth Reduction (%) 21 Days After Application LAMSS
[8] = Veronica persica, post-emergence, 504 h, read-out: Visual Growth Reduction (%) 21 Days After Application VERPE
[9] = 21 days after application, dose to kill or control 20%, probit analysis
[10] = 21 days after application, dose to kill or control 50%, probit analysis
[11] = 21 days after application, dose to kill or control 80%, probit analysis
[12] = Veronica persica, post-emergence, 504 h, 21 days after application, read-out: Visual Gorowth Reduction (%) 21 days After Application VERPE

COC(=O)c1nc(-c2ccc(Cl)c(F)c2)c(F)c(N)c1Cl [Compound 216]
pest or weed control at 35 g/ha [1, 7]: 95 to 100%
pest or weed control at 70 g/ha [1, 7]: 95 to 100%
pest or weed control at 140 g/ha ([1]; post-emergence, 504 h, 140 g ai/ha, read-out: Visual Growth Reduction (%) 21 Days After Application LAMSS): 95 to 100%
GR50 LAMSS [1]: 1 g ai/ha
GR80 LAMSS [1]: 1 g ai/ha
pest or weed control at 35 g/ha [2, 8]: 45 to 59%
pest or weed control at 70 g/ha [2, 8]: 60 to 74%
pest or weed control at 140 g/ha ([2]; Veronica persica, post-emergence, 504 h, 140 g ai/ha, read-out: Visual Growth Reduction (%) 21 Days After Application VERPE): 75 to 84%
GR50 VERPE ([2]; dose for growth reduction of 50 percent, 21 days after application): 32 g ai/ha
GR80 VERPE ([2]; dose for growth reduction of 80 percent, 21 days after application): >140 g ai/ha

COC(=O)c1nc(-c2ccc(Br)c(F)c2)c(F)c(N)c1Cl [Compound 49]
Visual Growth Reduction (%) 21 Days After Application, TRZSS ([3]; 35 g ai/ha): G (0-29)
Visual Growth Reduction (%) 21 Days After Application, TRZSS ([3]; 70 g ai/ha): G (0-29)
GR20 TRZSS [3, 9]: >70 g ai/ha
Visual Growth Reduction (%) 21 Days After Application, SETVI ([4]; 35 g ai/ha): F (30-44)
Visual Growth Reduction (%) 21 Days After Application, SETVI ([4]; 70 g ai/ha): F (30-44)
GR50 SETVI [4, 10]: >70 g ai/ha
GR80 SETVI [4, 11]: >70 g ai/ha
Visual Growth Reduction (%) 21 Days After Application, HORSS ([5]; 35 g ai/ha): G (0-29)
Visual Growth Reduction (%) 21 Days After Application, HORSS ([5]; 70 g ai/ha): G (0-29)
GR20 HORSS [5, 9]: >70 g ai/ha
Visual Growth Reduction (%) 21 Days After Application, LAMSS ([6]; 35 g ai/ha): A (95-100)
Visual Growth Reduction (%) 21 Days After Application, LAMSS ([6]; 70 g ai/ha): A (95-100)
GR50 LAMSS [6, 10]: 1 g ai/ha
GR80 LAMSS [6, 11]: 3 g ai/ha
pest or weed control at 35 g/ha [2, 12]: 45 to 59%
pest or weed control at 70 g/ha [2, 12]: 60 to 74%
GR50 VERPE ([2]; dose for 50 percent growth reduction, 21 days after application): 37 g ai/ha
GR80 VERPE ([2]; dose for 80 percent growth reduction, 21 days after application): >140 g ai/ha

Nc1c(F)c(-c2ccc(C(F)(F)F)c(F)c2F)nc(C(=O)O)c1Cl [Compound 167]
pest or weed control at 35 g/ha [1, 7]: 95 to 100%
pest or weed control at 70 g/ha [1, 7]: 95 to 100%
GR50 LAMSS [1]: 1 g ai/ha
GR80 LAMSS [1]: 1 g ai/ha
